Laboratory results reported in publication PMC8252180, “In vitro anti-Toxoplasma gondii efficacy of synthesised benzyltriazole derivatives” (The Onderstepoort Journal of Veterinary Research, 2021).
Values after ≈ are worked out from the molar mass of the structure shown. Read-outs that look alike come from different tables or passages of the source.

What was measured:
[1] = test system: Toxoplasma gondii RH-GFP; assay: In vitro growth inhibition assay (RH-GFP fluorescence in infected HFF cells); format: cell-based; details: for inhibition at 50 µg/mL / IC50: Toxoplasma gondii; for inhibition at 50 µg/mL: HFF, read-out: % Parasite inhibition (mean ± s.d.); for IC50: read-out: IC50 (anti-toxoplasmosis activity)
Description: Briefly, HFF cells were seeded into 96-well plates (1 × 10^4 cells/well) and cultured for 48 h. Expressing green fluorescent protein (GFP) type I strain RH (RH-GFP) tachyzoites (Nishikawa et al. [2003]) were added to the wells (5 × 10^4 tachyzoites/well). After a 4-h incubation, extracellular parasites were removed by washing. Then, chemical compounds at a final concentration of 50 µg/mL were added. […] After a 72-h incubation, the fluorescence intensity of RH-GFP was measured to determine the parasite growth. Compounds with parasite inhibition ≥ 80% were further screened for dose–response effects at final concentrations of 3.125 µg/mL, 6.25 µg/mL, 12.5 µg/mL, 25 µg/mL and 50 µg/mL.

[2] = Cytotoxicity analysis on HFF cells (CCK-8); format: cell-based, human; details: human, human foreskin fibroblasts (HFF) cells; test compounds at 50 µg/mL
Description: (§1) The cytotoxicity of the chemical compounds on human foreskin fibroblasts (HFF) cells was determined by using the cell counting kit-8 (CCK-8) (Dojindo Molecular Technologies, Inc. Japan) according to the manufacturer’s instructions. The compounds were dissolved in dimethyl sulfoxide (DMSO). HFF cells were plated in 96-well plates at a density of 1 × 10^4 cells per well. After a 48-h incubation at 37 °C in a 5% CO2 atmosphere, cells were exposed to various concentrations of tested chemical compounds (1 µg/mL, 5 µg/mL, 10 µg/mL, 25 µg/mL, 50 µg/mL and 100 µg/mL). Culture medium containing the same volume of DMSO was used as a negative control. After 24 h, the surviving cells were determined by adding CCK-8 reagent. Cell viability was measured based on the absorbance at 450 nm after an additional 4-h incubation.

[3] = Vero cell viability; format: cell-based; details: African green monkey, Vero cells; test compounds at 100 µg/mL
Text: (§2) TABLE 2 Screening of chemical compounds for anti-RH-GFP efficacy. | column: % viability Vero ^¶

[4] = test system: Toxoplasma gondii RH-GFP tachyzoites; format: cell-based; details: for Activity against extracellular and intracellular parasites: invasion and replication tests, FJS-302 10 µg/mL, FJS-303 and FJS-403 12.5 µg/mL, SFZ 1 mg/mL; for Infection rate (SAG1-positive Vero cells per 100 Vero cells): non-treated 11.3% ± 0.6%
Description: Vero cells were seeded on 12-well plates as described here, and purified RH-GFP tachyzoites were treated with FJS-302, FJS-303, FJS-403 or FJS-INH for 1 h at 37 °C. Then treated parasites were added to Vero cells in a 12-well plate (2 × 10^5 tachyzoites per well). At 2 h postinfection, the extracellular parasites were removed by washing, and the infected Vero cells were further incubated for 24 h at 37 °C in a 5% CO2 incubator. After incubation, IFAT was conducted as described here to evaluate the effects of the chemical compounds on parasite invasion. The infection rates were calculated as follows: [number of SAG1-positive Vero cells]/[100 randomly selected Vero cells]×100 [Eqn 1]
In addition, at least 10 fields were observed per group to measure the average number of parasites per field.

[5] = test system: Toxoplasma gondii PruΔku80Δhxgprt; assay: Bradyzoite differentiation assay (Vero cells, IFAT); format: cell-based; details: 48 h; for Antitachyzoite activity: PruΔku80Δhxgprt; for Bradyzoite number: compounds 50 µg/mL (Figure 4 legend)
Description: Vero cells were plated in 12-well plates at a density of 1 × 10^5 cells per well and incubated for 24 h at 37 °C in a 5% CO2 atmosphere. Then, purified PruΔku80Δhxgprt tachyzoites were added to Vero cells at 1 mL/well (parasites per host cell ratio = 1:1). Two hours postinfection, chemical compounds were added in EMEM supplemented with 8% FBS. Indirect fluorescent antibody test was conducted after a 48-h incubation. Tachyzoites were stained by using anti-SAG1 mouse polyclonal antibody (Guo et al. [2019]), and bradyzoites were detected by using anti-GFP rabbit polyclonal antibody (Medical & Biological Laboratories CO., LDT, Japan). Secondary antibody Alexa Fluor 594-conjugated goat anti-mouse IgG (Invitrogen, United States) diluted 1:1000 and Alexa Fluor 488-conjugated goat anti-Rabbit IgG (Invitrogen, United States) diluted 1:1000 were used. Five fields per well were observed by using an All-in-one Fluorescence Microscope (BZ-9000, Keyence, Japan), and the percentage of bradyzoites was calculated.

[6] = test system: human foreskin fibroblasts (HFF) cells; assay: Cytotoxicity analysis on HFF cells (CCK-8); format: cell-based; details: for Effect on host cell viability / growth: HFF cells, 0-100 µg/mL, 24 h
Description: as §1

[7] = test system: Toxoplasma gondii RH strain; details: ref De Oliveira et al. [2009]; cited from earlier work
[8] = test system: HFF cells; details: 200 µg/mL of SFZ; ref De Oliveira et al. [2009]; cited from earlier work
[9] = test system: Vero cells; assay: Vero cell viability; format: cell-based; details: sulphadiazine at 1 mg/mL
Text: as §2

[10] = 72 h, test compounds at 50 µg/mL, 72 h, RH-GFP-infected HFF cells
[11] = RH-GFP-infected HFF cells, 72 h, 3.125-50 µg/mL
[12] = test compounds at 50 µg/mL, 72 h, RH-GFP-infected HFF cells
[13] = parasites pretreated with 12.5 µg/mL
[14] = parasites pretreated with 12.5 µg/mL for 1 h

CCCCCCCCCCc1cn(Cc2ccc(Br)cc2)nn1 [FJS-104]
inhibition at 50 µg/mL [1, 10]: 62.2 ± 6% | viability at 24 h, 50 µg/mL [2]: 100% | viability at 100 µg/mL [3]: 103%

Brc1ccc(Cn2cc(CSc3ccccc3)nn2)cc1 [FJS-105]
inhibition at 50 µg/mL [1, 10]: 60.5 ± 6.1% | viability at 24 h, 50 µg/mL [2]: 100% | viability at 100 µg/mL [3]: 103%

CCCCc1cn(Cc2ccccc2)nn1 [FJS-201]
inhibition at 50 µg/mL [1, 10]: 64.6 ± 6.8% | viability at 24 h, 50 µg/mL [2]: 100% | viability at 100 µg/mL [3]: 99.3%

c1ccc(Cn2cc(CSc3ccccc3)nn2)cc1 [FJS-205]
inhibition at 50 µg/mL [1, 10]: 60.2 ± 5.1% | viability at 24 h, 50 µg/mL [2]: 100% | viability at 100 µg/mL [3]: 101%

CCCCc1cn(Cc2ccc(C)cc2)nn1 [FJS-301]
inhibition at 50 µg/mL [1, 10]: 57.7 ± 3% | viability at 24 h, 50 µg/mL [2]: 96.2% | viability at 100 µg/mL [3]: 85.4%

CCCCCCc1cn(Cc2ccc(C)cc2)nn1 [FJS-302]
Activity against extracellular and intracellular parasites [4]: effective against extra- and intracellular parasites | Number of parasites per field after pretreatment ([4]; parasites pretreated with 10 µg/mL): significantly reduced | Infection rate (SAG1-positive Vero cells per 100 Vero cells) ([4]; parasites pretreated with 10 µg/mL for 1 h): 6.2% ± 0.5% | inhibition at 50 µg/mL [1, 10]: > 80% | IC50 [1, 11]: 5.6 µg/mL (≈ 21.8 µM) | % Parasite inhibition (mean ± s.d.) [1, 12]: 95.9 ± 4.6% | Antitachyzoite activity [5]: significant antitachyzoite activity | Bradyzoite number [5]: did not increase the bradyzoite number | Effect on host cell viability / growth [6]: no significant suppression on host cell growth | viability at 24 h, 50 µg/mL [2]: 85% | viability at 100 µg/mL [3]: 86.1%

CCCCCCCCc1cn(Cc2ccc(C)cc2)nn1 [FJS-303]
Activity against extracellular and intracellular parasites [4]: effective against extra- and intracellular parasites | Number of parasites per field after pretreatment [4, 13]: significantly reduced | Infection rate (SAG1-positive Vero cells per 100 Vero cells) [4, 14]: 5.8% ± 0.5% | inhibition at 50 µg/mL [1, 10]: > 80% | IC50 [1, 11]: 6.8 µg/mL (≈ 23.8 µM) | % Parasite inhibition (mean ± s.d.) [1, 12]: 96.3 ± 3.9% | Antitachyzoite activity [5]: significant antitachyzoite activity | Bradyzoite number [5]: did not increase the bradyzoite number | Effect on host cell viability / growth [6]: no significant suppression on host cell growth | viability at 24 h, 50 µg/mL [2]: 110% | viability at 100 µg/mL [3]: 101%

CCCCCCCCc1cn(Cc2ccc(C(F)(F)F)cc2)nn1 [FJS-403]
Activity against extracellular and intracellular parasites [4]: effective against extra- and intracellular parasites | Number of parasites per field after pretreatment [4, 13]: significantly reduced | Infection rate (SAG1-positive Vero cells per 100 Vero cells) [4, 14]: 5.2% ± 0.7% | inhibition at 50 µg/mL [1, 10]: > 80% | IC50 [1, 11]: 7 µg/mL (≈ 20.6 µM) | % Parasite inhibition (mean ± s.d.) [1, 12]: 91.5 ± 1.7% | Antitachyzoite activity [5]: significant antitachyzoite activity | Bradyzoite number [5]: did not increase the bradyzoite number | Effect on host cell viability / growth [6]: no significant suppression on host cell growth | viability at 24 h, 50 µg/mL [2]: 103% | viability at 100 µg/mL [3]: 102%

CCCCCCCCCCc1cn(Cc2ccc(C(F)(F)F)cc2)nn1 [FJS-404]
inhibition at 50 µg/mL [1, 10]: 64.5 ± 1.8% | viability at 24 h, 50 µg/mL [2]: 100%

FC(F)(F)c1ccc(Cn2cc(CSc3ccccc3)nn2)cc1 [FJS-405]
inhibition at 50 µg/mL [1, 10]: 35 ± 5% | viability at 24 h, 50 µg/mL [2]: 100% | viability at 100 µg/mL [3]: 103%

NNC(=O)c1ccncc1 [FJS-INH, isoniazid, reference compound]
Infection rate (SAG1-positive Vero cells per 100 Vero cells) ([4]; parasites pretreated with 50 µg/mL for 1 h): 10.7% ± 0.5% | Potency relative to the leading BnTz derivative ([1]; T. gondii growth inhibition, from IC50): threefold less potent | inhibition at 50 µg/mL [1, 10]: > 80% | IC50 [1, 11]: 19.8 µg/mL (≈ 144 µM) | % Parasite inhibition (mean ± s.d.) [1, 12]: 87.2 ± 4.6% | Antitachyzoite activity [5]: significant antitachyzoite activity | Effect on host cell viability / growth [6]: no significant suppression on host cell growth | viability at 24 h, 50 µg/mL [2]: 118% | viability at 100 µg/mL [3]: 98%

Nc1ccc(S(=O)(=O)Nc2ncccn2)cc1 [SFZ, sulphadiazine, reference compound]
Activity against extracellular and intracellular parasites [4]: affected only intracellular parasite | Infection rate (SAG1-positive Vero cells per 100 Vero cells) ([4]; parasites pretreated with 1 mg/mL for 1 h): 11.7% ± 1.3% | IC50 (anti-toxoplasmosis activity) [1, 11]: 59.5 µg/mL (≈ 238 µM) | % Parasite inhibition (mean ± s.d.) ([1]; sulphadiazine at 1 mg/mL, 72 h, RH-GFP-infected HFF cells): 73.7 ± 4.6% | Bradyzoite number (GFP-positive parasitophorous vacuoles per field) ([5]; SFZ 1 mg/mL, no treatment 6.5 ± 1.5): 23.7 ± 6.0 | Bradyzoite rate (bradyzoite differentiation) ([5]; SFZ 1 mg/mL, no treatment 8.2% ± 1.9%): 46.6% ± 7.9% | IC50 of SFZ on RH strain [7]: 70 µg/mL | Decrease of viability of HFF cells [8]: 28% | % viability HFF ([6]; sulphadiazine at 1 mg/mL): 105.19% | % viability Vero [9]: 92.11%
